For data set [1], the system named is PDE. Particulars: read-out: PDE inhibition activity IC50; cited from earlier work.
In data set [2] the test system is colon cancer cell line HT29. The following applies: read-out: cytotoxic effect IC50; cited from earlier work.
For data set [3], the system named is PDE5A1. Particulars: read-out: PDE5A1 inhibition IC50; cited from earlier work.
Data set [4] has as its system AChE. The following applies: read-out: AChE inhibition IC50; cited from earlier work.
Data set [5] deals with blood platelet aggregation. Put plainly: platelet aggregation in platelet-rich plasma (light transmittance aggregometry, collagen + DEA-NO). Format: cell-based. Particulars: Homo sapiens, 10 μM compound, 500 nM DEA-NO, 2 μg/mL collagen, vs DMSO + DEA-NO. From the text: Nitric oxide is one of the main physiological antiplatelet molecules secreted by vascular endothelium. It stimulates intraplatelet production of cGMP. This secondary messenger is then decomposed in platelets by the activity of two out of three PDE isoforms which are detected in platelets, namely by PDE2 and PDE5, while the other isoform (PDE3) is mostly involved in cAMP hydrolysis. Inhibitors of these phosphodiesterases increase intraplatelet concentration of cGMP and thus potentiate the antiplatelet effect of NO [52]. […]
Multiplate test cells for turbidimetric aggregometry and collagen were purchased from Chronolog Co (Havertown, PA, USA). […] DEA-NO was added to the final concentration of 500 nM, and shortly after, collagen was added to each sample to a final concentration of 2 μg/mL to induce platelet aggregation, which was thereafter monitored for 10 min using an optical aggregometer Chrono-Log 490-2D (Chrono-Log, Havertown, PA, USA). The total area under the aggregation curve (AUC) and the maximal value of platelet aggregation (Amax,U) was recorded. […]
Shortly prior to measurement, 500 nM DEA-NO was added, followed by 2 μg/mL collagen. Percentage of inhibition of platelet response was calculated in comparison to a sample treated with DMSO and DEA-NO on the basis of maximal value of platelet aggregation. […]

The subject of data set [6] is lung carcinoma A549. Put plainly: MTT cell viability assay, A549. The format is cell-based, human. The following applies: Homo sapiens, 72 h, median (95% Confidence Intervals). How it is done: (§1) The following human cell lines were used in this study: (i) epidermoid carcinoma A-431 (ATCC® CRL-1555), (ii) lung carcinoma A549 (ATCC® CCL-185), (iii) colorectal carcinoma HCT116 (ATCC® CCL-247), (iv) HCT116p53^−/−, (v) glioblastoma U-87 MG (ATCC® HTB-14), (vi) glioblastoma U-251 MG (ECACC 09063001), (vii) breast adenocarcinoma MCF7 (ATCC® HTB-22), (viii) breast adenocarcinoma MDA-MB-231 (ECACC 92020424), (ix) papillomavirus-related cervical squamous cell carcinoma SKG-IIIa (RRID:CVCL_1704), (x) cervical adenocarcinoma HeLa (ATCC® CCL-2), (xi) bone osteosarcoma U-2 OS (ATCC® HTB-96), (xii) hepatocellular carcinoma HEPG2 (ATCC® HB-8065), (xiii) larynx squamous cell carcinoma BICR 18 (ECACC 06051601), (ix) kidney HEK 293T (ATCC® CRL-11268), (xv) normal lung fibroblasts MRC-5 (ATCC® CCL-171), (xvi) normal fibroblasts BJ (ATCC® CRL-2522). The HCT116p53^−/− cell line was a kind gift from professor Bert Vogelstein (John Hopkin’s University, Baltimore, MD, USA). The remaining cell lines were purchased from ATCC (Manassas, VA, USA) or Sigma-Aldrich by Merck (Darmstadt, Germany).
(§2) Cells were cultured in minimal or Dulbecco’s modified Eagle’s or Ham’s F10 medium supplemented with 10% fetal bovine serum (Gibco by Thermo Fisher Scientific, Waltham, MA, USA) and (for BICR 18) 0.4 μg/mL hydrocortizone (Sigma-Aldrich by Merck, Darmstadt, Germany) under standard culture conditions (37 °C, 5% CO2) in a humidified incubator with an atmospheric oxygen.
(§3) The viability of cells was assayed by measuring the conversion of MTT (3-(4,5-dimethylthiazol-2-yl)-2,5-diphenyltetrazolium bromide) to the formazan (the rate of this reaction is proportional to the number of surviving cells). Cells were seeded in a 96-well plate at a density of 2500–3500 cells per well, 24 h before treatment. […] MTT stock solution (Sigma-Aldrich) was added at the final concentration 0.5 mg/mL. After 4 h of incubation at 37 °C, water-insoluble formazan was dissolved in a lysis buffer containing 20% SDS, 50% DMF, 2.5% hydrochloric acid and 2.5% acetic acid. Optical densities were measured at 570 nm using a scanning multi-well spectrophotometer ([…] Detection Platform; Beckman Coulter, Brea, CA, USA). At least three independent experiments of viability were conducted.
Background: Tetrazolium assays rely on reduction of a dye to a coloured formazan, in cell work by metabolically active cells.

Data set [7] has as its system normal lung fibroblasts MRC-5. Kind of data set: MTT cell viability assay, MRC-5. The format is cell-based, human. The following applies: Homo sapiens, MRC5; MRC-5, MTT, 72 h; median (95% Confidence Intervals). Here is the method: as §1, §2, §3
The subject of data set [8] is colorectal carcinoma HCT116p53^−/−. Kind of data set: MTT cell viability assay, HCT116p53−/−. The format is cell-based, human. The following applies: Homo sapiens, 72 h, median (95% Confidence Intervals). Here is the method:
as §1, §2, §3

Data set [9] has as its system glioblastoma U-87 MG. Kind of data set: MTT cell viability assay, U-87 MG. The format is cell-based, human. Particulars: Homo sapiens, 72 h, median (95% Confidence Intervals). How it is done:
as §1, §2, §3

The subject of data set [10] is breast adenocarcinoma MDA-MB-231. Put plainly: MTT cell viability assay, MDA-MB-231. The format is cell-based, human. The following applies: Homo sapiens; MDA-MB-231, MTT, 72 h; median (95% Confidence Intervals). How it is done: as §1, §2, §3
For data set [11], the system named is PDE5. The following applies: read-out: earlier reported IC50 values for PDE5; cited from earlier work.
Data set [12] deals with glioblastoma U-251 MG. Kind of data set: MTT cell viability assay, U-251 MG. Format: cell-based, human. The following applies: Homo sapiens, 72 h, median (95% Confidence Intervals). Here is the method: as §1, with “The remaining cell lines were purchased from ATCC (Manassas, VA, USA) or Sigma-Aldrich by Merck (Darmstadt, Germany).” left out
The viability of cells was assayed by measuring the conversion of MTT (3-(4,5-dimethylthiazol-2-yl)-2,5-diphenyltetrazolium bromide) to the formazan (the rate of this reaction is proportional to the number of surviving cells). […] Optical densities were measured at 570 nm using a scanning multi-well spectrophotometer ([…] Detection Platform; Beckman Coulter, Brea, CA, USA). […]

Data set [13] has as its system normal fibroblasts BJ. Kind of data set: MTT cell viability assay, BJ. Format: cell-based, human. The following applies: Homo sapiens, Fibroblast, 72 h, median (95% Confidence Intervals). How it is done:
as §1, §2, §3

Data set [14] has as its system larynx squamous cell carcinoma BICR 18. Put plainly: MTT cell viability assay, BICR 18. Format: cell-based, human. Particulars: Homo sapiens; BICR 18, MTT, 72 h; median (95% Confidence Intervals). Here is the method: as §1, §2, §3
Data set [15] relates to cervical squamous cell carcinoma SKG-IIIa. Kind of data set: MTT cell viability assay, SKG-IIIa. The format is cell-based, human. The following applies: Homo sapiens, SKGIIIa, 72 h, median (95% Confidence Intervals). Here is the method: as §1, §2, §3
Data set [16] concerns colorectal carcinoma HCT116. Put plainly: MTT cell viability assay, HCT116. The format is cell-based, human. The following applies: Homo sapiens, HCT-116, 72 h, median (95% Confidence Intervals). Here is the method: as §1, §2, §3
The test system of data set [17] is cervical adenocarcinoma HeLa. Put plainly: MTT cell viability assay, HeLa. Format: cell-based, human. Particulars: Homo sapiens, 72 h, median (95% Confidence Intervals). Here is the method: as §1, §2, §3
Data set [18] concerns breast adenocarcinoma MCF7. Put plainly: MTT cell viability assay, MCF7. Format: cell-based, human. The following applies: Homo sapiens, 72 h, median (95% Confidence Intervals). Here is the method:
as §1, §2, §3

Data set [19] has as its system bone osteosarcoma U-2 OS. Kind of data set: MTT cell viability assay, U-2 OS. Format: cell-based, human. The following applies: Homo sapiens, U2OS, 72 h, median (95% Confidence Intervals). Here is the method: as §1, §2, §3
Data set [20] has as its system kidney HEK 293T. Kind of data set: MTT cell viability assay, HEK 293T. The format is cell-based, human. Particulars: Homo sapiens, 72 h, median (95% Confidence Intervals). Here is the method:
as §1, §2, §3

Data set [21] relates to epidermoid carcinoma A-431. Kind of data set: MTT cell viability assay, A-431. Particulars: Homo sapiens; A-431, MTT, 72 h; median (95% Confidence Intervals). Format: cell-based, human. How it is done:
as §1, §2, §3

Data set [22] has as its system hepatocellular carcinoma HEPG2. Put plainly: MTT cell viability assay, HEPG2. The format is cell-based, human. The following applies: Homo sapiens, 72 h, median (95% Confidence Intervals). Here is the method:
as §1, §2, §3

Drawing on publication PMC7913621 (Molecules, 2021), this text covers IC50 and inhibition for three compounds.

Each structure is given as a SMILES string.

In general, IC50 refers to the concentration that inhibits the measured activity by half. With `CCN1CC(=O)N2C(Cc3c([nH]c4ccccc34)C2c2ccccc2Br)C1=O` (stereo not shown) [Compound 3], the IC50 in data set [1] is 0.06 µM; in data set [2], 25.5 µM.

Consider `O=C1C2Cc3c([nH]c4ccccc34)C(c3ccc4c(c3)OCO4)N2C(=O)CN1CCC1CCN(Cc2ccccc2)CC1` (stereo not shown) [Compound 5], for which the IC50 in data set [3] was 1.53 µM; in data set [4], 0.032 µM.

One may read the inhibition as the relative decrease from the control value, in per cent. In the case of `CN1CC(=O)N2[C@H](c3ccc4c(c3)OCO4)c3[nH]c4ccccc4c3C[C@@H]2C1=O` [Tadalafil, reference compound], the inhibition at 10 µM in [5] is approximately 50%. The IC50 in [6] was 51.5 µM; in [7], 28.7 µM; in data set [8], 19.8 µM; in data set [9], 40.7 µM; in data set [10], 87.6 µM; in [11] it was […]. The IC50 was 44.1 µM in data set [12]; 40.5 µM in data set [13]; 52.5 µM in [14]; 35.1 µM in data set [15]; 27.2 µM in [16]; 42.3 µM in data set [17]. Besides, the IC50 was found to be 55.3 µM in [18]; 35.1 µM in data set [19]; 31 µM in [20]; 20.4 µM in [21]; 46.6 µM in [22].
